Measurements published in patent publication US10273243B2, “4-phenylpiperidines, their preparation and use” (The Trustees of Columbia University in the City of New York, priority 2013, dated 2019).
Where a name gives a salt, the structure may show the parent alone.

Row | SMILES | melting point [°C]
1 | O=C(c1n[nH]c2c1CCNC2)N1CCC(c2ccccc2C(F)(F)F)CC1 (as salt: hydrochloride) [Example 16, (4,5,6,7-Tetrahydro-1H-pyrazolo[3,4-c]pyridin-3-yl)(4-(2-(trifluoromethyl)phenyl)piperidin-1-yl)methanone Hydrochloride] | 272 to 278
2 | Cn1nc(C(=O)N2CCC(c3ccccc3C(F)(F)F)CC2)c2c1CCS(=O)(=O)C2 [Example 3, (1-methyl-5,5-dioxido-1,4,6,7-tetrahydrothiopyrano[4,3-c]pyrazol-3-yl)(4-(2-(trifluoromethyl)phenyl)piperidin-1-yl)methanone] | 232 to 234
3 | CC(=O)N1Cc2[nH]nc(C(=O)N3CCC(c4ccccc4C(F)(F)F)CC3)c2C1 [Example 7, 1-(3-(4-(2-(Trifluoromethyl)phenyl)piperidine-1-carbonyl)pyrrolo[3,4-c]pyrazol-5(1H,4H,6H)-yl)ethanone] | 186 to 192
4 | CN1CCc2c(C(=O)N3CCC(c4ccccc4C(F)(F)F)CC3)n[nH]c2C1 [Example 19, (6-Methyl-4,5,6,7-tetrahydro-1H-pyrazolo[3,4-c]pyridin-3-yl)(4-(2-(trifluoromethyl)phenyl)piperidin-1-yl)methanone] | 115 to 120
5 | Cn1nc(C(=O)N2CCC(c3ccccc3C(F)(F)F)CC2)c2cc(F)ccc21 [Example 21, (5-Fluoro-1-methyl-1H-indazol-3-yl)(4-(2-(trifluoromethyl)phenyl)piperidin-1-yl)methanone] | 161 to 163
6 | O=C(c1n[nH]c2c1CNCC2)N1CCC(c2ccccc2C(F)(F)F)CC1 [Example 26, (4,5,6,7-Tetrahydro-1H-pyrazolo[4,3-c]pyridin-3-yl)(4-(2-(trifluoromethyl)phenyl)piperidin-1-yl)methanone] | 270 to 272
7 | O=C(c1n[nH]c2cc(F)c(F)cc12)N1CCC(c2ccccc2C(F)(F)F)CC1 [Example 34, (5,6-Difluoro-1H-indazol-3-yl)(4-(2-(trifluoromethyl)phenyl)piperidin-1-yl)methanone] | 233 to 235
8 | N#Cc1ccc2[nH]nc(C(=O)N3CCC(c4ccccc4C(F)(F)F)CC3)c2c1 [Example 36, 3-(4-(2-(Trifluoromethyl)phenyl)piperidine-1-carbonyl)-1H-indazole-5-carbonitrile] | 249 to 252
9 | CCS(=O)(=O)N1CCc2[nH]nc(C(=O)N3CCC(c4ccccc4C(F)(F)F)CC3)c2C1 [Example 37, (5-(Ethylsulfonyl)-4,5,6,7-tetrahydro-1H-pyrazolo[4,3-c]pyridin-3-yl)(4-(2-(trifluoromethyl)phenyl)piperidin-1-yl)methanone] | 187 to 189
10 | CC(C)CS(=O)(=O)N1CCc2[nH]nc(C(=O)N3CCC(c4ccccc4C(F)(F)F)CC3)c2C1 [Example 38, (5-(Isobutylsulfonyl)-4,5,6,7-tetrahydro-1H-pyrazolo[4,3-c]pyridin-3-yl)(4-(2-(trifluoromethyl)phenyl)piperidin-1-yl)methanone] | 178 to 180
11 | CC(C)S(=O)(=O)N1CCc2[nH]nc(C(=O)N3CCC(c4ccccc4C(F)(F)F)CC3)c2C1 [Example 39, (5-(Isopropylsulfonyl)-4,5,6,7-tetrahydro-1H-pyrazolo[4,3-c]pyridin-3-yl)(4-(2-(trifluoromethyl)phenyl)piperidin-1-yl)methanone] | 199 to 201
12 | CC(C)C(=O)N1CCc2[nH]nc(C(=O)N3CCC(c4ccccc4C(F)(F)F)CC3)c2C1 [Example 41, 2-Methyl-1-(3-(4-(2-(trifluoromethyl)phenyl)piperidine-1-carbonyl)-6,7-dihydro-1H-pyrazolo[4,3-c]pyridin-5(4H)-yl)propan-1-one] | 112 to 114
13 | CCC(=O)N1CCc2[nH]nc(C(=O)N3CCC(c4ccccc4C(F)(F)F)CC3)c2C1 [Example 44, 1-(3-(4-(2-(Trifluoromethyl)phenyl)piperidine-1-carbonyl)-6,7-dihydro-1H-pyrazolo[4,3-c]pyridin-5(4H)-yl)propan-1-one] | 153 to 155
14 | CC(C)CN1CCc2[nH]nc(C(=O)N3CCC(c4ccccc4C(F)(F)F)CC3)c2C1 [Example 45, (5-Isobutyl-4,5,6,7-tetrahydro-1H-pyrazolo[4,3-c]pyridin-3-yl)(4-(2-(trifluoromethyl)phenyl)piperidin-1-yl)methanone] | 105 to 107
15 | O=C(c1n[nH]c2c1CN(C1COC1)CC2)N1CCC(c2ccccc2C(F)(F)F)CC1 [Example 46, (5-(Oxetan-3-yl)-4,5,6,7-tetrahydro-1H-pyrazolo[4,3-c]pyridin-3-yl)(4-(2-(trifluoromethyl)phenyl)piperidin-1-yl)methanone] | 107 to 110
16 | CCC(=O)N1CCc2c(C(=O)N3CCC(c4ccccc4C(F)(F)F)CC3)n[nH]c2C1 [Example 49, 1-(3-(4-(2-(Trifluoromethyl)phenyl)piperidine-1-carbonyl)-4,5-dihydro-1H-pyrazolo[3,4-c]pyridin-6(7H)-yl)propan-1-one] | 162 to 164
17 | CC(C)C(=O)N1CCc2c(C(=O)N3CCC(c4ccccc4C(F)(F)F)CC3)n[nH]c2C1 [Example 52, 2-Methyl-1-(3-(4-(2-(trifluoromethyl)phenyl)piperidine-1-carbonyl)-4,5-dihydro-1H-pyrazolo[3,4-c]pyridin-6(7H)-yl)propan-1-one] | 200 to 203
18 | CCC(=O)N1Cc2[nH]nc(C(=O)N3CCC(c4ccccc4C(F)(F)F)CC3)c2C1 [Example 53, 1-(3-(4-(2-(Trifluoromethyl)phenyl)piperidine-1-carbonyl)pyrrolo[3,4-c]pyrazol-5(1H,4H,6H)-yl)propan-1-one] | 216 to 219
19 | CC(C)C(=O)N1Cc2[nH]nc(C(=O)N3CCC(c4ccccc4C(F)(F)F)CC3)c2C1 [Example 54] | 192 to 195

Second part, the compound after the results:

Row | melting point [°C] | SMILES
20 | 44 to 46 | Cn1nc(C(=O)N2CCC(c3ccccc3C(F)(F)F)CC2)c2c1CCOC2 [Example 1, (1-Methyl-1,4,6,7-tetrahydropyrano[4,3-c]pyrazol-3-yl)(4-(2-(trifluoromethyl)phenyl)piperidin-1-yl)methanone]
21 | 58 to 64 | Cn1nc(C(=O)N2CCC(c3ccccc3C(F)(F)F)CC2)c2c1CC(C)(C)OC2 [Example 2, (4-(2-(Trifluoromethyl)phenyl)piperidin-1-yl)(1,6,6-trimethyl-1,4,6,7-tetrahydropyrano[4,3-c]pyrazol-3-yl)methanone]
22 | 75 to 85 | CN1CCCc2[nH]nc(C(=O)N3CCC(c4ccccc4C(F)(F)F)CC3)c2C1 [Example 10, (5-Methyl-1,4,5,6,7,8-hexahydropyrazolo[4,3-c]azepin-3-yl)(4-(2-(trifluoromethyl)phenyl)piperidin-1-yl)methanone]
23 | 202 to 209 | CC(=O)N1CCc2c(C(=O)N3CCC(c4ccccc4C(F)(F)F)CC3)n[nH]c2C1 [Example 17, 1-(3-(4-(2-(Trifluoromethyl)phenyl)piperidine-1-carbonyl)-4,5-dihydro-1H-pyrazolo[3,4-c]pyridin-6(7H)-yl)ethanone]
24 | 242 to 245 | CS(=O)(=O)N1CCc2c(C(=O)N3CCC(c4ccccc4C(F)(F)F)CC3)n[nH]c2C1 [Example 18, (6-(Methylsulfonyl)-4,5,6,7-tetrahydro-1H-pyrazolo[3,4-c]pyridin-3-yl)(4-(2-(trifluoromethyl)phenyl)piperidin-1-yl)methanone]
25 | 208 to 211 | CC(=O)N1CCc2[nH]nc(C(=O)N3CCC(c4ccccc4C(F)(F)F)CC3)c2C1 [Example 27, 1-(3-(4-(2-(Trifluoromethyl)phenyl)piperidine-1-carbonyl)-6,7-dihydro-1H-pyrazolo[4,3-c]pyridin-5(4H)-yl)ethanone]
26 | 240 to 243 | CS(=O)(=O)N1CCc2[nH]nc(C(=O)N3CCC(c4ccccc4C(F)(F)F)CC3)c2C1 [Example 28, (5-(Methylsulfonyl)-4,5,6,7-tetrahydro-1H-pyrazolo[4,3-c]pyridin-3-yl)(4-(2-(trifluoromethyl)phenyl)piperidin-1-yl)methanone]
27 | 202 to 205 | O=C(c1n[nH]c2ncccc12)N1CCC(c2ccccc2C(F)(F)F)CC1 [Example 30, (1H-pyrazolo[3,4-b]pyridin-3-yl)(4-(2-(trifluoromethyl)phenyl)piperidin-1-yl)methanone]
28 | 126 to 128 | CC(C)(C)C(=O)N1CCc2[nH]nc(C(=O)N3CCC(c4ccccc4C(F)(F)F)CC3)c2C1 [Example 40, 2,2-Dimethyl-1-(3-(4-(2-(trifluoromethyl)phenyl)piperidine-1-carbonyl)-6,7-dihydro-1H-pyrazolo[4,3-c]pyridin-5(4H)-yl)propan-1-one]
29 | 107 to 109 | CC(C)CC(=O)N1CCc2[nH]nc(C(=O)N3CCC(c4ccccc4C(F)(F)F)CC3)c2C1 [Example 42, 3-Methyl-1-(3-(4-(2-(trifluoromethyl)phenyl)piperidine-1-carbonyl)-6,7-dihydro-1H-pyrazolo[4,3-c]pyridin-5(4H)-yl)butan-1-one]
30 | 159 to 162 | CCN1CCc2[nH]nc(C(=O)N3CCC(c4ccccc4C(F)(F)F)CC3)c2C1 [Example 43, (5-Ethyl-4,5,6,7-tetrahydro-1H-pyrazolo[4,3-c]pyridin-3-yl)(4-(2-(trifluoromethyl)phenyl)piperidin-1-yl)methanone]
31 | 127 to 130 | O=C(CC(F)(F)F)N1CCc2[nH]nc(C(=O)N3CCC(c4ccccc4C(F)(F)F)CC3)c2C1 [Example 47, 3,3,3-Trifluoro-1-(3-(4-(2-(trifluoromethyl)phenyl)piperidine-1-carbonyl)-6,7-dihydro-1H-pyrazolo[4,3-c]pyridin-5(4H)-yl)propan-1-one]
32 | 192 to 194 | COCC(=O)N1CCc2[nH]nc(C(=O)N3CCC(c4ccccc4C(F)(F)F)CC3)c2C1 [Example 48, 2-Methoxy-1-(3-(4-(2-(trifluoromethyl)phenyl)piperidine-1-carbonyl)-6,7-dihydro-1H-pyrazolo[4,3-c]pyridin-5(4H)-yl)ethanone]
33 | 220 to 222 | CC(C)S(=O)(=O)N1CCc2c(C(=O)N3CCC(c4ccccc4C(F)(F)F)CC3)n[nH]c2C1 [Example 51, (6-(Isopropylsulfonyl)-4,5,6,7-tetrahydro-1H-pyrazolo[3,4-c]pyridin-3-yl)(4-(2-(trifluoromethyl)phenyl)piperidin-1-yl)methanone]
